The structures appear in SMILES notation.

For one assay, the target named is PDE7A (Homo sapiens (Human), UniProt Q13946). Nature of the assay: PDE7A assay: inhibition of PDE7A hydrolysis of [3H]cAMP to [3H]AMP (scintillation proximity, yttrium silicate beads). The format is biochemical. As to conditions: 16 nM [3H]cAMP, 30° C., 20 minutes; read-out: PDE 7A IC50. On the procedure: (§1) PDE7A and PDE7B Assay. Compounds were tested for their activity by measuring the inhibition of PDE7A or PDE7B hydrolysis of [3H]cAMP to [3H]AMP. Generally, eight dilutions of compound were assayed in 50 mM Tris-HCl pH 7.5, 8.3 mM MgCl2, 0.5 mg/mL BSA, 1.7 mM EGTA, 16 nM [3H]cAMP, and 1% DMSO. PDE7A or PDE7B (typically 1-5 ng/mL) (BPS BioSciences, CA) is added to initiate the reaction. The reaction was incubated at 30° C. for 20 minutes. PDE7A and PDE7B hydrolysis was terminated by the addition of yttrium silicate beads (GE Healthcare, RPNQ0150) and counted on a Wallac Microbeta scintillation counter, 1-2 hours following the addition of the beads. Data was analyzed using XLfit […] from which ICso values were obtained.
In general terms: SPA uses beads or plates that emit light when radiolabelled molecules are held near them.

A further assay has as its target PDE7B (Homo sapiens (Human), UniProt Q9NP56). Kind of assay: PDE7B assay: inhibition of PDE7B hydrolysis of [3H]cAMP to [3H]AMP (scintillation proximity, yttrium silicate beads). The format is biochemical. As to conditions: 16 nM [3H]cAMP, 30° C., 20 minutes; read-out: PDE 7B IC50. The method, then: as §1

Sequence of PDE7B (Q9NP56 whole entry): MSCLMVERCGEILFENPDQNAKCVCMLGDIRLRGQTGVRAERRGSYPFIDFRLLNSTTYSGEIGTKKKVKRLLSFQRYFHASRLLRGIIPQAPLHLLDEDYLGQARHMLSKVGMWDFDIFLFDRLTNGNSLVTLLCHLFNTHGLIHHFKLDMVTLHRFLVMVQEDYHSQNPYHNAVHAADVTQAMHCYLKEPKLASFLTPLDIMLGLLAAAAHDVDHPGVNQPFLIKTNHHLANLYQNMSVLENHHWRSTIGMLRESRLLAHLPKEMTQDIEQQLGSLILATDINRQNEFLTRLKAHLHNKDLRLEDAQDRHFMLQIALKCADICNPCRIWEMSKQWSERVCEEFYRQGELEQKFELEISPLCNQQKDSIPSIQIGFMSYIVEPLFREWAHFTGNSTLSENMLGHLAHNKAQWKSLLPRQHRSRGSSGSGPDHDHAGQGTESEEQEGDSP
Sequence of PDE7A (Q13946 whole entry): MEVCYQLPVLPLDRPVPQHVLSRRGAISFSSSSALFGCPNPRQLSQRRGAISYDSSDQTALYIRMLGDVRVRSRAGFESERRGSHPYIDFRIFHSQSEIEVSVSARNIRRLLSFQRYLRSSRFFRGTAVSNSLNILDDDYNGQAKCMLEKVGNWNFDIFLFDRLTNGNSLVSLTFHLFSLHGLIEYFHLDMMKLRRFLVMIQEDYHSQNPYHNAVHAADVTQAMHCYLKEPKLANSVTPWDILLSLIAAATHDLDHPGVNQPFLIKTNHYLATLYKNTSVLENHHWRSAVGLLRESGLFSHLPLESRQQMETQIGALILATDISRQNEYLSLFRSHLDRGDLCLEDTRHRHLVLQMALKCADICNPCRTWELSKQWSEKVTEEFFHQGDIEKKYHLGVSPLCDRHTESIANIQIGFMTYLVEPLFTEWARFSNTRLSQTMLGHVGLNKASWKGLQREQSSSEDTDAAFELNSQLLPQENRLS

The term IC50 denotes the concentration at which inhibition is half-maximal. With `Cc1nn(C2C[C@@H](C)O[C@@H](C)C2)c2sc(C(=O)N[C@H]3CC[C@H](N4CCN(C(C)C)CC4)CC3)cc12` (stereo partly shown) [II-1, 1-((2r,6s)-2,6-dimeth-yltetrahydro-2H-pyr-an-4-yl)-N-((1r,4r)-4-(4-isopropylpiperazin-1-yl)cyclohexyl)-3-methyl-1H-thieno [2,3-c]pyrazole-5-carboxamide], the values for the IC50 at PDE7A and on PDE7B were 100 to 500 nM and 500 to 2500 nM, respectively.
The matching figures for `Cc1nn(CC(C)(C)C)c2sc(C(=O)N[C@H]3CC[C@H](N4CCN(C(C)C)CC4)CC3)cc12` [II-31, N-((1r,4r)-4-(4-iso-propylpiperazin-1-yl)cyclohexyl)-3-methyl-1-neopentyl-1H-thieno[2,3-c]pyr-azole-5-carboxamide]: less than 10 nM and less than 10 nM.
Turning to `Cc1nn(CC(C)C)c2sc(C(=O)N[C@H]3CC[C@H](N4CCN(C5CC5)CC4)CC3)cc12` [II-6, N-((1r,4r)-4-(4-cyclo-propylpiperazin-1-yl)-cyclohexyl)-1-isobut-yl-3-methyl-1H-thieno[2,3-c]pyrazole-5-carboxamide], the IC50 on PDE7A was 10 to 30 nM; at PDE7B it was 30 to 100 nM.
Regarding `Cc1nn(CC(C)(C)C)c2sc(C(=O)N[C@H]3C[C@H](N4CCOCC4)C3)cc12` [II-25, 3-methyl-N-((1r,3r)-3-morpholinocyclo-butyl)-1-neopentyl-1H-thieno[2,3-c]pyr-azole-5-carboxamide], the IC50 at PDE7A was in the range of 10 to 30 nM; at PDE7B it was 30 to 100 nM.
Consider `Cc1nn(CC(C)(C)C)c2sc(C(=O)N[C@H]3CC[C@H](N4CCOCC4)CC3)cc12` [II-32, 3-methyl-N-((1r,4r)-4-morpholinocyclo-hexyl)-1-neopentyl-1H-thieno[2,3-c]pyr-azole-5-carboxamide], for which the IC50 at PDE7A and at PDE7B was less than 10 nM in each case.
As for `Cc1nn(CC(C)C)c2sc(C(=O)N[C@H]3CC[C@H](N4CCOCC4)CC3)cc12` [II-14], the IC50 at PDE7A and on PDE7B was 30 to 100 nM in each case.
With `Cc1nn(CC(C)(C)C)c2sc(C(=O)Nc3cnc(N4CCOCC4)c(Cl)c3)cc12` [II-38, N-(5-chloro-6-morpholinopyridin-3-yl)-3-methyl-1-neopentyl-1H-thieno [2,3-c]pyrazole-5-carboxamide], the IC50 at PDE7A was in the range of 100 to 500 nM; on PDE7B it was 500 to 2500 nM.
The like results for `Cc1nn(C2CCC(F)(F)CC2)c2sc(C(=O)N[C@H]3C[C@H](N4CCN(C5CC5)CC4)C3)cc12` [II-33, N-((1r,3r)-3-(4-cyclo-propylpiperazin-1-yl)cyclobutyl)-1-(4,4-difluorocyclohexyl)-3-methyl-1H-thieno [2,3-c]pyrazole-5-carboxamide] were, in that order, 10 to 30 nM and 10 to 30 nM.
The like results for `Cc1nn(CC2CCC2)c2sc(C(=O)N[C@H]3CC[C@H](N4CCN(CC(F)(F)F)CC4)CC3)cc12` [II-21, 1-(cyclobutylmethyl)-3-methyl-N-((1r,4r)-4-(4-(2,2,2-trifluoro-ethyl)piperazin-1-yl)-cyclohexyl)-1H-thieno[2,3-c]pyrazole-5-carboxamide] were, in that order, 10 to 30 nM and 30 to 100 nM.
The like results for `Cc1nn(CC(C)C)c2sc(C(=O)N[C@H]3CC[C@H](N4CC(OC(F)F)C4)CC3)cc12` [II-44, N-((1r,4r)-4-(3-(difluoromethoxy)-azetidin-1-yl)cyclo-hexyl)-1-isobutyl-3-methyl-1H-thieno [2,3-c]pyrazole-5-carboxamide] were, in that order, 30 to 100 nM and 100 to 500 nM.
For `Cc1nn(CC(C)(C)C)c2sc(C(=O)N[C@H]3CC[C@H](N4CC(OC(F)F)C4)CC3)cc12` [II-42, N-((1r,4r)-4-(3-(difluoromethoxy)-azetidin-1-yl)cyclo-hexyl)-3-methyl-1-neopentyl-1H-thieno [2,3-c]pyrazole-5-carboxamide], the IC50 at PDE7A and on PDE7B was less than 10 nM each time.
Take `CC(=O)N1CCN([C@H]2CC[C@H](NC(=O)c3cc4c(C)nn(C5C[C@@H](C)O[C@@H](C)C5)c4s3)CC2)CC1` (stereo partly shown) [II-2, N-((1r,4r)-4-(4-acetylpiperazin-1-yl)-cyclohexyl)-1-((2r,6s)-2,6-dimeth-yltetrahydro-2H-pyr-ran-4-yl)-3-methyl-1H-thieno[2,3-c]pyr-azole-5-carboxamide]: the half-maximal inhibitory concentration (IC50) at PDE7A fell in the range of 30 to 100 nM; on PDE7B it was 100 to 500 nM.
Consider `Cc1nn(CC(C)(C)C)c2sc(C(=O)N[C@H]3CC[C@H](N4CCC(F)(F)C4)CC3)cc12` [II-27, N-((1r,4r)-4-(3,3-difluoropyrrolidin-1-yl)cyclohexyl)-3-methyl-1-neopentyl-1H-thieno[2,3-c]pyr-azole-5-carboxamide], for which the IC50 on PDE7A and on PDE7B was less than 10 nM each time.
Turning to `CC(=O)N1CCN([C@H]2C[C@H](NC(=O)c3cc4c(C)nn(C5CCC(F)(F)CC5)c4s3)C2)CC1` [II-29, N-((1r,3r)-3-(4-acet-ylpiperazin-1-yl)-cyclobutyl)-1-(4,4-difluorocyclohexyl)-3-methyl-1H-thieno [2,3-c]pyrazole-5-carboxamide], the IC50 on PDE7A and at PDE7B was 10 to 30 nM each time.
`Cc1nn(CC(C)C)c2sc(C(=O)N[C@H]3CC[C@H](N4CC(C#N)C4)CC3)cc12` [II-43, N-((1r,4r)-4-(3-cyanoazetidin-1-yl)-cyclohexyl)-1-iso-butyl-3-methyl-1H-thieno[2,3-c]pyrazole-5-carboxamide]: the IC50 at PDE7A and at PDE7B was 10 to 30 nM each time.
On to `Cc1nn(CC(C)(C)C)c2sc(C(=O)N[C@H]3CC[C@H](N4CCN(C5CC5)CC4)CC3)cc12` [II-24, N-((1r,4r)-4-(4-cyclo-propylpiperazin-1-yl)-cyclohexyl)-3-meth-yl-1-neopentyl-1H-thieno[2,3-c]pyrazole-5-carboxamide], for which the IC50 on PDE7A and on PDE7B was less than 10 nM throughout.
Turning to `Cc1nn(CC(C)C)c2sc(C(=O)N[C@H]3CC[C@H](N4CCN(C(C)C)CC4)CC3)cc12` [II-5, 1-isobutyl-N-((1r,4r)-4-(4-isopropylpiper-azin-1-yl)cyclohexyl)-3-methyl-1H-thieno [2,3-c]pyrazole-5-carboxamide], the IC50 at PDE7A fell in the range of 30 to 100 nM; on PDE7B, 10 to 30 nM.
Regarding `Cc1nn(C2CCC(F)(F)CC2)c2sc(C(=O)N[C@H]3CC[C@H](N4CC(OC(F)F)C4)CC3)cc12` [II-41, 1-(4,4-difluorocyclo-hexyl)-N-((1r,4r)-4-(3-(difluorometh-oxy)azetidin-1-yl)-cyclohexyl)-3-methyl-1H-thieno [2,3-c]pyrazole-5-carboxamide], the IC50 at PDE7A is 10 to 30 nM; at PDE7B, less than 10 nM.
The matching figures for `Cc1nn(CC(C)C)c2sc(C(=O)N[C@H]3CC[C@H](N4CCN(CC(F)(F)F)CC4)CC3)cc12` [II-7, 1-isobutyl-3-methyl-N-((1r,4r)-4-(4-(2,2,2-trifluoroethyl)piper-azin-1-yl)cyclohexyl)-1H-thieno[2,3-c]pyr-azole-5-carboxamide]: 30 to 100 nM and 30 to 100 nM.
The matching figures for `Cc1nn(-c2ccccc2Cl)c2sc(C(=O)N[C@H]3CC[C@H](N4CC(OC(F)F)C4)CC3)cc12` [Compound I-7, 1-(2-chlorophenyl)-N-((1r,4r)-4-(3-(difluoro-methoxy)azetidin-1-yl)-cyclohexyl)-3-methyl-1H-thieno[2,3-c]pyr-azole-5-carboxamide]: 10 to 30 nM and 10 to 30 nM.

The record behind these values is patent publication US20250066383A1, “PDE 7 MODULATOR COMPOUNDS” (Omeros Corporation, priority 2023, published 2025).
